Results as given in ChEMBL document CHEMBL5321285 (J Med Chem, 2023).
Converted amounts (≈) assume the structure as drawn. Each block holds one molecule with its values, some of them ahead of it. The source made the active and inactive calls. The rule behind the calls is not given here.

Columns and labels:
[1] = target: T1, Sigma intracellular receptor 2 (Homo sapiens, UniProt Q5BJF2); test: Binding affinity to sigma2 receptor (unknown origin) assessed as inhibition constant
[2] = target: T2, Sigma non-opioid intracellular receptor 1 (Homo sapiens, UniProt Q99720); test: Binding affinity to sigma1 receptor (unknown origin) assessed as inhibition constant
[3] = Metabolic stability in mouse liver microsome assessed as parent compound remaining at 1 uM measured after 1 hr in presence of NADPH regenerating system by UPLC-MS/MS analysis; format: ADME; settings: liver microsomes, read-out: Stability
[4] = system: Neuron; test: Neuroprotective activity against MPP+ induced rat neurons at 10 uM pretreated with compond for 1 hr followed by MPP+ addition and measured after 48 hrs; format: functional, cell-based; settings: time 49.0 hrs
[5] = species on record: Homo sapiens; test: Selectivity ratio of Ki for displacement of [3H]-(+)-pentazocine from human sigma1 receptor transfected in HEK293 cell membranes assessed as inhibition constant to Ki for displacement of [3H]-1,3-di-O-tolylguanidine from human sigma 2 receptor/TMEM97 transfected in sigma 1 receptor knockout HEK293 cell membranes assessed as inhibition constant
[6] = target: T2, Sigma non-opioid intracellular receptor 1; test: Displacement of [3H]-(+)-pentazocine from human sigma1 receptor transfected in HEK293 cell membranes assessed as inhibition constant incubated for 120 mins in presence of haloperidol by microbeta scintillation counter analysis; design: species or system Cell membrane
[7] = target: T1, Sigma intracellular receptor 2; test: Displacement of [3H]-1,3-di-O-tolylguanidine from human sigma 2 receptor/TMEM97 transfected in sigma 1 receptor knockout HEK293 cell membranes assessed as inhibition constant measured after 120 mins by microbeta scintillation counting analysis; design: species or system Cell membrane
[8] = Metabolic stability in human liver microsome assessed as parent compound remaining at 1 uM measured after 1 hr in presence of NADPH regenerating system by UPLC-MS/MS analysis; format: ADME; settings: liver microsomes, read-out: Stability
[9] = Metabolic stability in rat liver microsome assessed as parent compound remaining at 1 uM measured after 1 hr in presence of NADPH regenerating system by UPLC-MS/MS analysis; format: ADME; settings: liver microsomes, read-out: Stability
[10] = Binding affinity to sigma1 receptor (unknown origin) assessed as inhibition constant
[11] = target: T3, Sigma intracellular receptor 2 (Rattus norvegicus, UniProt Q5U3Y7); test: Displacement of [3H]di-o-tolylguanidine from rat liver membrane sigma 2 assessed as inhibition constant incubated for 120 mins; format: cell membranes
T3 sequence (Q5U3Y7 whole entry): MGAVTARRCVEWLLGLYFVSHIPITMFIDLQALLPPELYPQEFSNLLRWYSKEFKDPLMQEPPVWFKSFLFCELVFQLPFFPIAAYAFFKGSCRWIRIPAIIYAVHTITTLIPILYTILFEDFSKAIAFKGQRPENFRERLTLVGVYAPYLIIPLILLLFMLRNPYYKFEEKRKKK

[12] = target: Sigma non-opioid intracellular receptor 1 (Rattus norvegicus, UniProt Q9R0C9); test: Displacement of [3H](+)-pentazocine from rat liver membranes sigma 1 receptor assessed as inhibition constant incubated for 120 mins; format: cell membranes, Membrane
[13] = target: Sigma non-opioid intracellular receptor 1 (Cavia porcellus, UniProt Q60492)
Description: Displacement of [3H](+)-pentazocine from sigma 1 receptor in guinea pig brain membranes assessed as inhibition constant incubated for 120 mins in presence of haloperidol

[14] = target: T3, Sigma intracellular receptor 2; test: Displacement of [3H]di-o-tolylguanidine from rat liver membrane sigma 2 receptor assessed as inhibition constant in presence of haloperidol; format: cell membranes
[15] = Cmax in Wistar rat at 10 mg/kg, po by UPLC-MS/MS analysis; format: ADME, organism-based; design: dose 10 mg/kg, route po; settings: in vivo
[16] = target: Voltage-gated inwardly rectifying potassium channel KCNH2 (Homo sapiens, UniProt Q12809); test: Inhibition of hERG expressed in CHO cells at holding potential of -80 mV measured for 15 seconds by whole cell patch clamp assay; format: toxicity, cell-based
[17] = system: Rattus norvegicus; test: Anti-alzheimer activity against amyloid beta peptide-induced cognitive impairment in Wistar rat model at 10 mg/kg, po measured for 10 days; format: functional, organism-based; settings: time 10.0 day
[18] = Metabolic stability in human liver microsome assessed as intrinsic clearance incubated upto 60 mins in presence of NADPH regenerating system by UPLC-MS/MS analysis; format: ADME; settings: liver microsomes, read-out: CLH
[19] = Lipophilicity, logP of compound; format: physicochemical; settings: octanol/water
[20] = target: Cytochrome P450 2C9 (Homo sapiens, UniProt P11712); test: Inhibition of CYP2C9 in human liver microsomes using tolbutamide as substrate incubated for 20 mins by UPLC-MS/MS analysis; format: ADME, Microsome
[21] = Oral bioavailability in Wistar rat at 10 mg/kg by UPLC-MS/MS analysis; format: ADME, organism-based; settings: in vivo
[22] = target: T4, Cytochrome P450 1A2 (Homo sapiens, UniProt P05177); test: Inhibition of CYP1A2 in human liver microsomes using phenacetin as substrate incubated for 20 mins by UPLC-MS/MS analysis; format: ADME, Microsome
T4 sequence (P05177 whole entry): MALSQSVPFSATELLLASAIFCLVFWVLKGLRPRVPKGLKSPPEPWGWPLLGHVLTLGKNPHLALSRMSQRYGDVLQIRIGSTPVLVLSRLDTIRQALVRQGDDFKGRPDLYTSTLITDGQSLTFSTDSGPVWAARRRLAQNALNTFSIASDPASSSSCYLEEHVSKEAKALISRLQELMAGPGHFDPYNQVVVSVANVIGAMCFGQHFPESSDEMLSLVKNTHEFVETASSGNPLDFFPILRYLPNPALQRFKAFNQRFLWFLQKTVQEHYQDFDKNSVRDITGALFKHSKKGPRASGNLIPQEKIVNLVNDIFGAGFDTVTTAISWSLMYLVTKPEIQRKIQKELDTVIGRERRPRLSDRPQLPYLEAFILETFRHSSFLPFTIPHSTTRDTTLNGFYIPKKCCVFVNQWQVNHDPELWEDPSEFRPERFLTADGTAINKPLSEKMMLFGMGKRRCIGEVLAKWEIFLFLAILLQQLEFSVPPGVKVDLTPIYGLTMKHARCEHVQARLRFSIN

[23] = target: Cytochrome P450 2C19 (Homo sapiens, UniProt P33261); test: Inhibition of CYP2C19 in human liver microsomes using S mephenytoin as substrate incubated for 20 mins by UPLC-MS/MS analysis; format: ADME, Microsome
[24] = Solubility of the compound at pH 7.4; format: physicochemical; settings: buffer
[25] = Dissociation constant, pKa of the compound; format: physicochemical
[26] = Tmax in Wistar rat at 1 mg/kg, iv by UPLC-MS/MS analysis; format: ADME, organism-based; settings: in vivo
[27] = AUC in Wistar rat at 1 mg/kg, iv by UPLC-MS/MS analysis; format: ADME, organism-based; design: dose 1 mg/kg, route iv; settings: in vivo
[28] = Metabolic stability in rat liver microsome assessed as intrinsic clearance incubated upto 60 mins in presence of NADPH regenerating system by UPLC-MS/MS analysis; format: ADME; settings: liver microsomes, read-out: CLH
[29] = Ratio AUC in Wistar rat brain to plasma at 10 mg/kg, po measured for 10 mins by UPLC-MS/MS analysis; format: ADME, organism-based; settings: brain and plasma, read-out: Ratio AUC
[30] = Apparent permeability across apical to basolateral side in human Caco-2 cells incubated for 2 hrs by UPLC-MS/MS analysis; format: ADME, cell-based
[31] = Cmax in Wistar rat at 1 mg/kg, iv by UPLC-MS/MS analysis; format: ADME, organism-based; design: dose 1 mg/kg, route iv; settings: in vivo
[32] = Drug concentration in Wistar rat plasma at 10 mg/kg, po measured for 10 mins by UPLC-MS/MS analysis; format: ADME, organism-based
[33] = target: Cytochrome P450 2D6 (Homo sapiens, UniProt P10635); test: Inhibition of CYP2D6 in human liver microsomes using bufuralol as substrate incubated for 20 mins by UPLC-MS/MS analysis; format: ADME, Microsome
[34] = Volume of distribution at steady state in Wistar rat at 1 mg/kg, iv by UPLC-MS/MS analysis; format: ADME, organism-based; settings: in vivo, read-out: Vdss
[35] = Clearance in Wistar rat at 1 mg/kg, iv by UPLC-MS/MS analysis; format: ADME, organism-based; settings: in vivo
[36] = AUC in Wistar rat at 10 mg/kg, po by UPLC-MS/MS analysis; format: ADME, organism-based; design: dose 10 mg/kg, route po; settings: in vivo
[37] = Metabolic stability in mouse liver microsome assessed as intrinsic clearance incubated upto 60 mins in presence of NADPH regenerating system by UPLC-MS/MS analysis; format: ADME; settings: liver microsomes, read-out: CLH
[38] = Lipophilicity, logD of the compound; format: physicochemical; settings: octanol/water
[39] = target: Cytochrome P450 3A4 (Homo sapiens, UniProt P08684); test: Inhibition of CYP3A4 in human liver microsomes using testosterone as substrate incubated for 20 mins by UPLC-MS/MS analysis; format: ADME, Microsome
[40] = Efflux ratio of apparent permeability across […] in human Caco-2 cells; format: ADME, cell-based
[41] = Tmax in Wistar rat at 10 mg/kg, po by UPLC-MS/MS analysis; format: ADME, organism-based; settings: in vivo
[42] = Half life in Wistar rat at 1 mg/kg, iv by UPLC-MS/MS analysis; format: ADME, organism-based; settings: in vivo

T2 sequence (Q99720 whole entry): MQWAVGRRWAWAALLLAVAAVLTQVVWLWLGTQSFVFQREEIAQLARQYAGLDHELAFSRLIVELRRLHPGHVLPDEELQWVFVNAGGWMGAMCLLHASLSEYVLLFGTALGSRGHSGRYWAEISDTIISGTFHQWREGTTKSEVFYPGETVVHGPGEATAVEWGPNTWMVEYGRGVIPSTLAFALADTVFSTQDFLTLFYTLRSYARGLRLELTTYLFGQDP
T1 sequence (Q5BJF2 whole entry): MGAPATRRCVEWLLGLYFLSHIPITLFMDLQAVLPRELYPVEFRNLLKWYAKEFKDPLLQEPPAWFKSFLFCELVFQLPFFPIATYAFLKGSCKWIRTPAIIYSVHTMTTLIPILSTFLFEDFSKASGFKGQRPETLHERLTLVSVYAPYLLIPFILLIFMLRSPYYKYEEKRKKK
Chain of Voltage-gated inwardly rectifying potassium channel KCNH2 (Q12809 whole entry): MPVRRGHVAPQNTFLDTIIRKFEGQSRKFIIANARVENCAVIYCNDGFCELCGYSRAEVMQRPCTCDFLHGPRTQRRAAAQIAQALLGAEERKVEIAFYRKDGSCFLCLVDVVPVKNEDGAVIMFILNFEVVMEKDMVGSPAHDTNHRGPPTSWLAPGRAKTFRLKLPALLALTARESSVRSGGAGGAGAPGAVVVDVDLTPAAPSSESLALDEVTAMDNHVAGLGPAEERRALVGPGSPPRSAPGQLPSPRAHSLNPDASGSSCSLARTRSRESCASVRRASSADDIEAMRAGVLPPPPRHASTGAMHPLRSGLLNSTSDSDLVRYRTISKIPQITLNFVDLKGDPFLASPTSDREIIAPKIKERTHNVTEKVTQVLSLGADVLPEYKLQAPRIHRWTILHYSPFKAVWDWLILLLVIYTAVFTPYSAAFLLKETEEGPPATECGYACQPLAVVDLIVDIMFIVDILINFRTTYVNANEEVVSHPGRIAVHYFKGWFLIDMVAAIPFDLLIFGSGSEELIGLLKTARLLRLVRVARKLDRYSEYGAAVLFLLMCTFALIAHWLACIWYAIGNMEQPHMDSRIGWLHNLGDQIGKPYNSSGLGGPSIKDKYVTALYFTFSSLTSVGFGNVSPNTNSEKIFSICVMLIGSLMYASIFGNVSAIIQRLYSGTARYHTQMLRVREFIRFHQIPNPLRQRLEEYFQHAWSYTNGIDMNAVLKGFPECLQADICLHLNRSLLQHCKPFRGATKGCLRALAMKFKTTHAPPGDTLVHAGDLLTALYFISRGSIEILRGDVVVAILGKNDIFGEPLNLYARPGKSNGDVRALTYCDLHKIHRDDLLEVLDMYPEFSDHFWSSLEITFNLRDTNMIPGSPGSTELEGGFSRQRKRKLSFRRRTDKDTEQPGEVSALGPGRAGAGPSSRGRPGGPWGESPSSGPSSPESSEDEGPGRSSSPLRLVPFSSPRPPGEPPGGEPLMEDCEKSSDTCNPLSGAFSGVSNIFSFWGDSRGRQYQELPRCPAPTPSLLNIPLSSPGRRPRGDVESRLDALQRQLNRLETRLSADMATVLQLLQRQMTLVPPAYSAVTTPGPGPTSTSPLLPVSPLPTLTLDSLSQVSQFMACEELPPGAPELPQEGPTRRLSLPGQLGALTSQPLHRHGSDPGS
Chain of Cytochrome P450 2C9 (P11712 whole entry): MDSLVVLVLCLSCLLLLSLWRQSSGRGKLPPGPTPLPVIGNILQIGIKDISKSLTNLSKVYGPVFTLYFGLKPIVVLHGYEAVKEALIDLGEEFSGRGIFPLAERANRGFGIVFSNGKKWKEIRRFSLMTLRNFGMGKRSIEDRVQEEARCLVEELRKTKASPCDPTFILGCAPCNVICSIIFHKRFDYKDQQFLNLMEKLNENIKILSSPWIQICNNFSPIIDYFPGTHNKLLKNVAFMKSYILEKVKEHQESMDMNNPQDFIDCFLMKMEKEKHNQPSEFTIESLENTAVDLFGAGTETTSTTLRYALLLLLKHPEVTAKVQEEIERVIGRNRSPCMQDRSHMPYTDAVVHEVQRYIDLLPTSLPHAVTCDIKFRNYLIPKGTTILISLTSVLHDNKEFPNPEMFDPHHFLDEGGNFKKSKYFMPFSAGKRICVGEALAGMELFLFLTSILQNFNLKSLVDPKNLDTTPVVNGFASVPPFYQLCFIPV
Chain of Sigma non-opioid intracellular receptor 1 (Rattus norvegicus, UniProt Q9R0C9) (Q9R0C9 whole entry): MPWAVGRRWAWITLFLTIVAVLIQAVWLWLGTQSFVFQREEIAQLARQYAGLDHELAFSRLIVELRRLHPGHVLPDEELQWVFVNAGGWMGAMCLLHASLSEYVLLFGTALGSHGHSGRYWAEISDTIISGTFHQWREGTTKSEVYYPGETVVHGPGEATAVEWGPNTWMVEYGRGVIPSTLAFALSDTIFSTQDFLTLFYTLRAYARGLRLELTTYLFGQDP
Chain of Cytochrome P450 2D6 (P10635 whole entry): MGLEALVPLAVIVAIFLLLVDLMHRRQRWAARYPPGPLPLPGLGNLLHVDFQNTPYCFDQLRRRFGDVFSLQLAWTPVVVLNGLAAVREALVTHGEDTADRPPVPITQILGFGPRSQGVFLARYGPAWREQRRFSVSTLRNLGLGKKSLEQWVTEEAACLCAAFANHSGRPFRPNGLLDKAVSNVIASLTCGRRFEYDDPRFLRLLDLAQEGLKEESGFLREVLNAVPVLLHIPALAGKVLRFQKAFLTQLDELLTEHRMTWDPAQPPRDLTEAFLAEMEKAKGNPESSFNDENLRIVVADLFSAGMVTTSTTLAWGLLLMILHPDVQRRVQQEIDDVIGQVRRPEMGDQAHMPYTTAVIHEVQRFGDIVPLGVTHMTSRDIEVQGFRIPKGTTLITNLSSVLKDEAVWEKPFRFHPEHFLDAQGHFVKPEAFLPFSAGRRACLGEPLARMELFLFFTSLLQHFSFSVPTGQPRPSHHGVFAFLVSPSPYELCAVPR
Chain of Sigma non-opioid intracellular receptor 1 (Cavia porcellus, UniProt Q60492) (Q60492 whole entry): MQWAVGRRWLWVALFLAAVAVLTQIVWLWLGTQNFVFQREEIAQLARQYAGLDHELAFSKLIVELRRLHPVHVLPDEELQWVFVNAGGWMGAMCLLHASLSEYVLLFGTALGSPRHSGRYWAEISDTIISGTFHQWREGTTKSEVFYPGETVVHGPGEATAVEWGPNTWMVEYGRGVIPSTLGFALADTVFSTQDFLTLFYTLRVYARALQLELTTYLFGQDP
Chain of Cytochrome P450 3A4 (P08684 whole entry): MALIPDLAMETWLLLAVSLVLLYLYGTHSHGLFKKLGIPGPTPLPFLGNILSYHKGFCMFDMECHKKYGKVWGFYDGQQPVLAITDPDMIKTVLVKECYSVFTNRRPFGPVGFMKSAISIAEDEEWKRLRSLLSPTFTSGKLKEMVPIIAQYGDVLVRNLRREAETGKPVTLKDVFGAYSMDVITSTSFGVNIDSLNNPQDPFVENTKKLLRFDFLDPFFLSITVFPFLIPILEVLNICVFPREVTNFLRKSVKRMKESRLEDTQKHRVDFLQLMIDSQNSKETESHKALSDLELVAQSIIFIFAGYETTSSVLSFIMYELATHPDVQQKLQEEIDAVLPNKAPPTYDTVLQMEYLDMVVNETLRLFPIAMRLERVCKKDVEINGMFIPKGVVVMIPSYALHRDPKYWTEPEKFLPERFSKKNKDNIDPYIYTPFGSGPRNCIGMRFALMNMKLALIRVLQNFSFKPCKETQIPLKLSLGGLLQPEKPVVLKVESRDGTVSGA
Chain of Cytochrome P450 2C19 (P33261 whole entry): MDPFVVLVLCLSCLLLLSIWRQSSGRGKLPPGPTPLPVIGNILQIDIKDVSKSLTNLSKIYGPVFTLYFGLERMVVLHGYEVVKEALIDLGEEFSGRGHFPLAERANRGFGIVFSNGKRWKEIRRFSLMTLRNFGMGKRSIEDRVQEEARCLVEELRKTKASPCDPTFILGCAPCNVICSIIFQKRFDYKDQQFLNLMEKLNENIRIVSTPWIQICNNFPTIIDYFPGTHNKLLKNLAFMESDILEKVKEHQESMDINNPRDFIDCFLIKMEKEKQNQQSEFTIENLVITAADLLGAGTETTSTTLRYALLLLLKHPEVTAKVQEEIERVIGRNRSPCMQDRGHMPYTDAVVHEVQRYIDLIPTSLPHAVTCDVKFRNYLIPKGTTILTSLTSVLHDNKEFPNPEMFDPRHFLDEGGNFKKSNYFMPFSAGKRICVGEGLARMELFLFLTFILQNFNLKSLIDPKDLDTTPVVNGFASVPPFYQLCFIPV

Compound: CN1CC[C@]2(c3cccc(O)c3)CC(=O)/C(=C/c3ccc(Cl)c(Cl)c3)[C@H]1C2
Ki [13]: 7440 nM
Ki [14]: 13.4 nM

Compound: OCCCN1CCCC2CC1c1cc(-c3ccc(C(F)(F)F)cc3)ccc12 (configuration not stated)
Ki [1]: 46 nM
Ki [2]: 1280 nM

Compound: CCc1ncc(-c2cc(C)no2)c(C2CCN(CC(=O)N3CCOCC3)CC2)n1
Cmax [15]: 900 ng/mL
IC50 [16]: > 10000 nM
remaining at 1 h, 1 µM [3]: 93%
Activity [17]: Active
microsomal CLint [18]: 1.6 µL/min/mg
logP [19]: 1.7
IC50 [20]: 600000 nM
Activity [4]: Active
bioavailability [21]: 51%
IC50 [22]: > 900000 nM
IC50 [23]: > 900000 nM
solubility [24]: 7280 µg/mL (≈ 18.2 mM)
pKa [25]: 7.4
Tmax [26]: 18 min
AUC [27]: 593 ng·h/mL
microsomal CLint [28]: 1.5 µL/min/mg
Kp at 10 min [29]: 0.41
Papp A→B at 2 h [30]: 17.7 ×10⁻⁶ cm/s
Ratio Ki [5]: 137
Ki [6]: 1780 nM
Cmax [31]: 2020 ng/mL
concentration at 10 min [32]: 250 ng/g
Ki [7]: 13 nM
IC50 [33]: 133000 nM
remaining at 1 h, 1 µM [8]: 93%
Vd [34]: 0.8 L/kg
clearance [35]: 28.3 mL/min/kg
remaining at 1 h, 1 µM [9]: 95%
AUC [36]: 3000 ng·h/mL
microsomal CLint [37]: 2.8 µL/min/mg
logD [38]: 1.4
IC50 [39]: > 900000 nM
Ratio [40]: 1.2
Tmax [41]: 48 min
half-life [42]: 60 min

Compound: Cc1cc(-c2cnc(C3CC3)nc2C2CCN(CC(=O)N3CCOCC3)CC2)on1
IC50 [16]: 4200 nM
remaining at 1 h, 1 µM [3]: 97%
Ratio Ki [5]: 789
Ki [6]: 789 nM
Ki [7]: 1 nM
remaining at 1 h, 1 µM [8]: 86%
remaining at 1 h, 1 µM [9]: 84%

Compound: Cc1cc(-c2cnc(C)nc2C2CCN(CC(=O)N3CCOCC3)CC2)on1
IC50 [16]: > 10000 nM
remaining at 1 h, 1 µM [3]: 87%
Ratio Ki [5]: 140
Ki [6]: 8270 nM
Ki [7]: 59 nM
remaining at 1 h, 1 µM [8]: 104%
remaining at 1 h, 1 µM [9]: 100%

The next lines start with results.

Ki [1]: 0.43 nM
Ki [2]: 560 nM
Compound: COc1cc2c(cc1OC)CN(CCCCn1c(=O)n(C)c3ccccc31)CC2

remaining at 1 h, 1 µM [3]: 62%
Ki [6]: 23 nM
Ki [7]: 5 nM
remaining at 1 h, 1 µM [8]: 60%
remaining at 1 h, 1 µM [9]: 37%
Ki [1]: 8 nM
Ki [10]: 63 nM
Compound: CC(C)(C)Oc1cc(CCC(C)(C)N2Cc3ccc(S(C)(=O)=O)cc3C2)ccc1O
Activity [4]: Active
Ratio Ki [5]: 4.6

Ki [11]: 3.5 nM
Ki [12]: 87 nM
Compound: CC(=O)c1ccc2c(c1)oc(=O)n2CCCCN1CCN(c2ccc(F)cc2N)CC1

Ki [2]: ≥ 1000 nM
Compound: O=C(CN1CCC(CN2Cc3ccccc3C2=O)CC1)c1ccc(F)cc1 [ROLUPERIDONE]
